Measurements taken from patent US6010478A, “Trans-mucosal particle delivery” (PowderJect Research Limited, priority 1995, dated 2000).
Structures can show the parent of a compound that is named as a salt. Where two headings read alike, the source gives them in different places.

Legend:
oral mucosa [1] = experiment: Local anaesthesia: pain response to probing of treated oral mucosa, visual analogue scale; format: in vivo, human; settings: 3.0 mg particles by needleless syringe
Protocol: A randomized, double-blind study was then carried out as follows. Treatments were given to 14 subjects over the course of three visits. The treatments provided to the subjects in each visit were either a single 3.0 mg dose of Lignocaine HCL particles from the above-described needleless syringe device, or 0.0 mg (as a blinded negative control). Accordingly, treatments provided over the course of the three visits were either: two actual (3.0 mg) doses of the anaesthetic particles and one placebo; or two placebos and one actual (3.0 mg) dose. Pain stimulus was provided by probing oral mucosa with the back of a 27G dental needle, wherein the probe sequence was a probe on an untreated area of the mucosa, and then a probe on the treated area of the mucosa 1 minute post delivery. Again, the pain associated with the probe of the untreated and treated areas was scored on visual analogue scales using the above scoring methods immediately after each probe.

oral mucosa [2] = test system: oral mucosa; set-up: species or system human; settings: in vivo
Protocol: In a second study, a single 3.0 mg dose of lignocaine HCL particles (as above) was delivered using a needleless syringe, and a single 0.2 mL dose of 2% lignocaine HCL was delivered via needle-syringe injection. Pain associated with the administration of each treatment was scored in all 14 subjects using a 100 mm visual analogue scale immediately after each treatment, wherein 100% indicates a painful treatment, and 0% indicates a pain-free treatment. The needleless syringe employed in the study was operated using 40 bar helium driving gas to expel anaesthetic particles from a flexible, eversible dome-shaped membrane comprised of a 400 μm, 6 mm polyurethane film.

oral mucosa [3] = experiment: Visual assessment of delivery sites for damage or irritation of mucosal tissues; format: in vivo, human; settings: 3 mg particles 38-53 μm, needleless syringe, 24-48 hours after delivery, 14 subjects
Protocol: A randomized, double-blind, negatively controlled study was carried out in normal, healthy human subjects as follows. Initially, a single 3 mg dose of lignocaine HCL particles sized between 38 and 53 μm was delivered from a needleless syringe constructed in accordance with the invention. The lignocaine was delivered to the oral mucosa adjacent to the number 12 and 22 lateral incisors in 14 trial subjects. The delivery sites were then visually assessed for evidence of damage or irritation to the mucosal tissues.

[4] = Serum testosterone pharmacokinetics after transmucosal (OralJect needleless syringe) or subcutaneous delivery; format: in vivo, female New Zealand White rabbit; settings: for Cmax: 2 mg
Protocol: Testosterone (Sigma Chemicals) was milled and sieved into a particle size range (approximately 50-100 μm) suitable for transmucosal delivery from a needleless syringe using standard stainless steel mesh sieves. Female New Zealand White rabbit subjects weighing between 2.2-2.8 kg were used and allowed food and water ad libitum. The rabbits (n=8) were randomly assigned to one of two treatment groups. The first treatment group received testosterone (2.0 mg dose) as a suspension in 35% polyvinylpyrrolidone C-30 in water (6 mg/g testosterone concentration) via subcutaneous injection. The second treatment group received testosterone (2.0 mg dose of testosterone particles ranging from 53-75 μm) as two 1.0 mg transmucosal administrations from an OralJect™ needleless syringe device abutted against the cheek mucosa.
Whole blood (1.0 ml) was taken at times 0, 0.5, 1, 2, 4, 6, 8, 12, 24 and 48 hours, the serum aspirated and assayed for testosterone by radioimmunoassay (DPC). The OralJect™ device is a prototype device of the present invention that is actuated by helium at 40 bar.

Row | Structure (SMILES) | level of local anaesthesia relative to placebo treatments (oral mucosa [1]; 1 minute post delivery) | pain response score to probe of treated area (mean VAS) (oral mucosa [1]; probe 1 minute post delivery, untreated probe 55.6%, placebo 30.6%) | pain associated with administration (mean VAS score) (oral mucosa [2]) | tissue reaction at delivery site (oral mucosa [3]) | Cmax comparison between treatments ([4]; OralJect transmucosal vs subcutaneous, 2.0 mg, rabbit) | pharmacokinetic profile, transmucosal vs subcutaneous ([4]; OralJect transmucosal vs subcutaneous, rabbit) | % BA (% bioavailability) ([4]; OralJect transmucosal, 2.0 mg, rabbit) | time of second minor peak of serum testosterone ([4]; OralJect transmucosal, post administration, possible depot effect) | Cmax ([4]; rabbit, serum, OralJect transmucosal (cheek mucosa), 2 x 1.0 mg particles 53-75 μm, helium 40 bar, rabbit, read-out: Cmax (mean maximum serum concentration)) | Cmax ([4]; rabbit, serum, sc, subcutaneous injection, 2.0 mg suspension in 35% polyvinylpyrrolidone C-30 in water, rabbit, read-out: Cmax (mean maximum serum concentration)) | Cmax ([4]; rabbit, serum, sc, subcutaneous injection, 2.0 mg, rabbit, read-out: Cmax range) | Tmax ([4]; rabbit, serum, OralJect transmucosal, 2.0 mg, in all animals)
1 | CCN(CC)CC(=O)Nc1c(C)cccc1C [lignocaine HCL, lignocaine hydrochloride] | superior level of local anaesthesia relative to the placebo treatments | 15.0% | 49.9% | no evidence of any tissue reaction was observed |  |  |  |  |  |  |  | 
2 | C[C@]12CC[C@H]3[C@@H](CCC4=CC(=O)CC[C@@]43C)[C@@H]1CC[C@@H]2O [testosterone] |  |  |  |  | not significantly different between treatments although there was a tendency for it to be lower following OralJect™ administration | markedly different from that achieved following subcutaneous administration | ~48.3% | 12 h | 0.0255 ± 0.0035 µM | 0.0348 ± 0.0069 µM | 0.0269 to 0.0552 µM | 30 min
